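Where inhibition never reached the appropriate level, the endpoint shown equals the highest concentration tested. Otherwise, values were interpolated linearly from a five-concentration, 48-hour dose response in 96-well plates. Here, GI50 denotes the concentration required for 50% inhibition of growth. TGI denotes the concentration required for complete inhibition of growth.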
Columns and labels:
Assay in all cases: growth of human tumour cells (NCI), 48 h; in the data active = GI50 below about 0.43 µM; inactive = the rest
[1] = tested on: SK-MEL-28 melanoma
[2] = tested on: OVCAR-5 ovarian
[3] = tested on: UACC-257 melanoma
[4] = tested on: SR leukemia
[5] = tested on: 786-0 renal
[6] = tested on: KM12 colon
[7] = tested on: MOLT-4 leukemia
[8] = tested on: SF-539 CNS
[9] = tested on: OVCAR-8 ovarian
[10] = tested on: K-562 leukemia
[11] = tested on: HT29 colon
[12] = tested on: COLO 205 colon
[13] = tested on: U251 CNS
[14] = tested on: IGROV1 ovarian
[15] = tested on: SK-OV-3 ovarian
[16] = tested on: T-47D breast
[17] = tested on: DU-145 prostate
[18] = tested on: UACC-62 melanoma
[19] = tested on: NCI-H226 lung
[20] = tested on: PC-3 prostate
[21] = tested on: SF-295 CNS
[22] = tested on: HCT-116 colon
[23] = tested on: NCI-H460 lung
[24] = tested on: MDA-MB-435
[25] = tested on: SN12C renal
[26] = tested on: NCI-H23 lung
[27] = tested on: TK-10 renal
[28] = tested on: BT-549 breast
[29] = tested on: RPMI-8226 leukemia
[30] = tested on: HL-60(TB) leukemia
[31] = tested on: HS 578T breast
[32] = tested on: MCF7 breast
[33] = tested on: HCC-2998 colon
[34] = tested on: NCI-H522 lung
[35] = tested on: SNB-75 CNS
[36] = tested on: MDA-MB-231 breast
[37] = tested on: ACHN renal
[38] = tested on: SF-268 CNS
[39] = tested on: OVCAR-3 ovarian
[40] = tested on: SNB-19 CNS
[41] = tested on: A549 NSCLC
[42] = tested on: SW-620 colon
[43] = tested on: CCRF-CEM leukemia
[44] = tested on: HCT-15 colon
[45] = tested on: NCI/ADR-RES ovarian
[46] = tested on: HOP-62 NSCLC
[47] = tested on: MALME-3M melanoma
[48] = tested on: M14 melanoma
[49] = tested on: HOP-92 NSCLC
[50] = tested on: OVCAR-4 ovarian
[51] = tested on: SK-MEL-5 melanoma
[52] = tested on: RXF 393 renal
[53] = tested on: UO-31 renal
[54] = tested on: LOX IMVI melanoma
[55] = tested on: SK-MEL-2 melanoma
[56] = tested on: EKVX NSCLC
[57] = tested on: CAKI-1 renal
[58] = tested on: A498 renal

O=c1cc(-c2ccccc2)[nH]c2ccc(S)cc12
64.5 µM: TGI [34]
29.5 µM: TGI [51]
79.6 µM: TGI [27]
93.1 µM: TGI [11]
39.8 µM: TGI [7]
55.2 µM: TGI [28]
64.6 µM: TGI [1]
81.9 µM: TGI [19]
76.1 µM: TGI [35]
45.4 µM: TGI [24]
91.5 µM: TGI [49]
> 100 µM: TGI [2] | TGI [3] | TGI [4] | TGI [5] | TGI [6] | TGI [8] | TGI [9] | TGI [10] | TGI [12] | TGI [13] | TGI [14] | TGI [15] | TGI [17] | TGI [18] | TGI [20] | TGI [21] | TGI [23] | TGI [26] | TGI [29] | TGI [30] | TGI [31] | TGI [32] | TGI [36] | TGI [38] | TGI [39] | TGI [40] | TGI [41] | TGI [42] | TGI [43] | TGI [46] | TGI [50]
84.8 µM: TGI [48]
99.7 µM: TGI [37]
37 µM: TGI [25]
66.9 µM: TGI [22]
68 µM: TGI [16]
51.9 µM: TGI [33]
48 µM: TGI [44]
56.3 µM: TGI [45]
57.7 µM: TGI [47]
68.2 µM: TGI [52]

CO[C@@H]1CCN(c2nccc(Nc3cc4c(C(C)C)ccc(N5CC(CS(C)(=O)=O)[C@H]5C)c4cn3)n2)C[C@@H]1F (stereo partly drawn)
62.9 µM: TGI [19]
7.33 µM: TGI [29]
44.6 µM: TGI [37]
20.4 µM: TGI [26]
53.1 µM: TGI [50]
13.4 µM: TGI [16]
35.4 µM: TGI [28]
> 100 µM: TGI [1] | TGI [2] | TGI [5] | TGI [6] | TGI [7] | TGI [9] | TGI [10] | TGI [12] | TGI [13] | TGI [15] | TGI [20] | TGI [22] | TGI [25] | TGI [56] | TGI [30] | TGI [57] | TGI [35] | TGI [36] | TGI [38] | TGI [39] | TGI [40] | TGI [41] | TGI [42] | TGI [43] | TGI [46] | TGI [48] | TGI [49]
41.1 µM: TGI [3]
9.74 µM: TGI [45]
12.1 µM: TGI [11]
7.13 µM: TGI [14]
16.8 µM: TGI [54]
14.4 µM: TGI [44]
41.5 µM: TGI [31]
inactive: GI50 [1] 5.52 µM | GI50 [2] 6.36 µM | GI50 [3] 4.91 µM | GI50 [4] 2.87 µM | GI50 [5] 7.18 µM | GI50 [6] 3.14 µM | GI50 [7] 2.98 µM | GI50 [8] 5.05 µM | GI50 [9] 2.83 µM | GI50 [53] 1.41 µM | GI50 [54] 4.34 µM | GI50 [55] 4.7 µM | GI50 [10] 2.9 µM | GI50 [11] 3.1 µM | GI50 [12] 4.71 µM | GI50 [13] 4.31 µM | GI50 [14] 1.03 µM | GI50 [15] 7.42 µM | GI50 [16] 2.47 µM | GI50 [17] 2.45 µM | GI50 [19] 6.17 µM | GI50 [20] 3.52 µM | GI50 [21] 3.15 µM | GI50 [22] 3.26 µM | GI50 [23] 3.51 µM | GI50 [24] 4.96 µM | GI50 [25] 3.35 µM | GI50 [26] 3.7 µM | GI50 [27] 0.843 µM | GI50 [28] 4.55 µM | GI50 [29] 2.14 µM | GI50 [56] 1.21 µM | GI50 [30] 3.06 µM | GI50 [31] 4.26 µM | GI50 [32] 3.15 µM | GI50 [33] 4.55 µM | GI50 [57] 2.32 µM | GI50 [34] 1.69 µM | GI50 [35] 5.85 µM | GI50 [36] 8.77 µM | GI50 [58] 10.1 µM | GI50 [37] 1.33 µM | GI50 [38] 3.98 µM | GI50 [39] 3.07 µM | GI50 [40] 5.19 µM | GI50 [41] 3.06 µM | GI50 [42] 5.13 µM | GI50 [43] 4.55 µM | GI50 [44] 2.84 µM | GI50 [45] 2.81 µM | GI50 [46] 4.46 µM | GI50 [47] 3.76 µM | GI50 [48] 5.93 µM | GI50 [49] 10.6 µM | GI50 [50] 2.92 µM | GI50 [51] 2.22 µM | GI50 [52] 2.96 µM
36 µM: TGI [33]
15.6 µM: TGI [47]
45.1 µM: TGI [17]
44.7 µM: TGI [58]
5.42 µM: TGI [51]
14.8 µM: TGI [32]
24.3 µM: TGI [8]
11.9 µM: TGI [53]
19.9 µM: TGI [27]
83.9 µM: TGI [24]
20.5 µM: TGI [23]
10.1 µM: TGI [21]
8.25 µM: TGI [34]
17.6 µM: TGI [55]
32.7 µM: TGI [4]
7.65 µM: TGI [52]

Clc1cc2ccccc2c2ccccc12
96.7 µM: TGI [28]
> 100 µM: TGI [1] | TGI [2] | TGI [3] | TGI [4] | TGI [5] | TGI [6] | TGI [7] | TGI [8] | TGI [9] | TGI [53] | TGI [54] | TGI [10] | TGI [11] | TGI [12] | TGI [13] | TGI [14] | TGI [16] | TGI [17] | TGI [18] | TGI [19] | TGI [20] | TGI [21] | TGI [22] | TGI [23] | TGI [24] | TGI [25] | TGI [26] | TGI [27] | TGI [29] | TGI [56] | TGI [30] | TGI [31] | TGI [32] | TGI [33] | TGI [57] | TGI [34] | TGI [35] | TGI [36] | TGI [58] | TGI [37] | TGI [38] | TGI [39] | TGI [40] | TGI [41] | TGI [42] | TGI [43] | TGI [44] | TGI [45] | TGI [46] | TGI [47] | TGI [48] | TGI [50] | TGI [51] | TGI [52]
87.3 µM: TGI [49]
73.3 µM: TGI [55]

From PubChem BioAssay (NCI)
